Data taken from patent US8592405B2, “Synergistic antimicrobial composition” (Dow Global Technologies LLC, priority 2009, dated 2013).
“And” between values parts separate entries of the source, which are not always exact repeats. Equal entries are not always repeated.

Legend:
Assay type in all cases: cell-based
[1] = tested on: Aureobasidium pullulans (Ap); experiment: Fungal efficacy testing, modified ASTM 5590 (12-well, dry paint film); settings: three weeks; for % inhibition: at the Total conc; for Total conc, ppm: total biocide in paint taken as minimum inhibitory concentration, 30 C
Procedure: (§1) Samples of white acrylic latex paint free of biocides were prepared in 50 ml aliquots. Each biocide was post added to give the necessary active ingredient concentration in the paint. The total biocides concentrations tested were 750, 1500, 2500 and 5000 ppm. After biocides addition, each sample was hand mixed for a minimum of 30 sec, followed by a 3 min run on the paint shaker (RED DEVIL). Each of the paint samples as well as a control sample (containing no biocide) were used to prepare films on black plastic-vinyl chloride/acetate copolymer panels (LENETA, Mahwah, N.J.) using a 3 mil bird bar applicator. The panels were thoroughly dried for 5 days avoiding direct exposure to sunlight. Square discs (15 mm^2) were cut out from each panel and were used as the substrate for fungal and algal efficacy tests. This sample size allowed for an agar border when the sample disc was placed into the well of the test plate.
(§2) The appropriate media (BOLD'S 3N for Chlorophytes, BG-11 for Cyanobacteria, and PDA for fungi) were used to support microbial growth. The test plates were maintained at room temp (25° C.-26° C.), in a cycled light-dark environment, for 3 weeks for algae. Plates for fungal challenge tests were maintained at 30C for three weeks. At the end of incubation period the samples were scored for percent area covered by visible microbial growth.
(§3) ASTM 5590 is a standard accelerated test method for determining resistance of various coatings (including paints) to fungal defacement. To accommodate for high-throughput screening, this method was scaled down from petri plates to 12-well plates. To set up the test, an agar plug was placed at the bottom of each well of the sterile 12-well plate. A single coupon was placed with a pair of sterile forceps at the center of the agar plug (on top) with the painted surface facing upwards. Each well was inoculated with 150 μl of organism (1×10^6 cfu/ml) making sure that the whole surface (paint film as well as the agar surrounding it) was evenly covered. The plates were incubated at 30° C. in presence of moisture, for a period of three weeks. The total percent area covered was evaluated and recorded at the end of each week after the 2nd week and recorded in increments of 5%.
(§4) The SI is calculated based on F. C. Kull et.

[2] = tested on: Cladosporium herbarum (Ch); experiment: as above; settings: three weeks; for % inhibition: at the Total conc; for Total conc, ppm: total biocide in paint taken as minimum inhibitory concentration, 30 C
Procedure: as §1, §2, §3, §4

[3] = tested on: Penicillium funiculosum (Pf); experiment: as above; settings: three weeks; for % inhibition: at the Total conc; for Total conc, ppm: total biocide in paint taken as minimum inhibitory concentration, 30 C
Procedure: as §1, §2, §3, §4

[4] = tested on: Aa + Ap (Alternaria alternata + Aureobasidium pullulans); experiment: Fungal efficacy testing, modified ASTM 5590 (6-well, mixed inoculum, Example 4); settings: four weeks; for Total conc, ppm: Aa + Ap mixed inoculum, NE = no end point at the concentration tested; for % inhibition: Aa + Ap, at the Total conc
Procedure: [The source words this procedure for another target and reports this target under the same test.] as §4
(§5) A single or blend of biocides was post added into white acrylic latex paint free of biocides to give a maximum total active ingredient/s concentration tested. This paint was then diluted with a biocide free acrylic latex paint at concentrations range of 75 to 12.5% w/w to give desired concentrations for the testing. Depending on the type of biocide blends tested, the total biocides concentrations varies from 200 to 5000 ppm. After biocides addition or dilution each sample was hand mixed for at least a minute until uniformity is achieved. Each of the paint samples as well as a control sample (containing no biocide) were used to prepare films on black plastic-vinyl chloride/acetate copolymer panels (LENETA, Mahwah, N.J.) using a 3 mil bird bar applicator. The panels were thoroughly dried for at least 2 days avoiding direct exposure to sunlight. Square discs (0.5 inch^2, 13 mm^2) were cut out from each panel and were used as the substrate for fungal and algal efficacy tests. This sample size allowed for an agar border when the sample disc was placed into the well of the test plate. Each sample was tested in duplicate
as §2, with “for four” for “for 3”, “at 30 C” for “at 30C”, “for four” for “for three”, “of the” for “of”
as §3, with “6-well” for “12-well”, “upwards. Fungal inoculums were prepared by mixing equal concentrations (1×10^6 cfu/ml) and equal volumes (depending on number of samples to be tested) of like growing organisms. Cladosporium herbarum was mixed with Aureobasidium pullulans. Aspergillus niger was mixed with Penicillium funiculosum. Alternaria alternata was mixed with Trichoderma viride.” for “upwards.”, “400” for “150”, “organism mixture” for “organism”, “four” for “three”

[5] = tested on: Cp + To + Ta (Calotrix parientina, Trentepohlia odorata, Trentepohlia aurea); experiment: Algal efficacy testing, modified ASTM 5589 (6-well, mixed inoculum, Example 4); settings: four weeks; for Total conc, ppm: Cp + To + Ta mixed inoculum, NE = no end point at the concentration tested; for % inhibition: Cp + To + Ta, at the Total conc
Procedure: as §5
as §2, with “for four” for “for 3”, “at 30 C” for “at 30C”, “for four” for “for three”, “of the” for “of”
(§6) ASTM 5589 is a standard accelerated test method for determining resistance of various coatings (including paints) to algal defacement. To accommodate for high-throughput screening, this method was scaled down from petri plates to 6-well plates. A single coupon was placed with a pair of sterile forceps at the center of the agar plug (on top) with the painted surface facing upwards. Algal inoculums were prepared by mixing equal concentrations (1×10^6 cfu/ml) and equal volumes (depending on number of samples to be inoculated) of like growing organisms. In this study, Gloeocapsa sp. and Oscillatoria sp. were a mix of cyanobacteria grown on BG-11 media. Chlorella sp., Chlorella kessleri, and Nostoc commune are unicellular chlorphytes that were mixed and grown on Bold media. Trentepohlia aurea, Trentepohlia odorata, and Calotrix parientina are filamentous algae that were mixed and grown on Bold media. Each well was inoculated with 400 μl of organism mixture (1×10^6 cfu/ml) making sure that the whole surface (paint film as well as the agar surrounding it) was evenly covered. The plates were incubated at room temp (25° C.-26° C.) with cyclic exposure to light (OTT-Lite model #OTL4012P, 40 Watt, 26 KLumen) and dark phases, for a period of four weeks. The total area covered was evaluated at the end of each week according to percent area covered in 5% increments. While rating the plates, notations were made for zones of inhibition.

[6] = tested on: Cs + Ck + Nc (Chlorella sp., Chlorella kessleri, Nostoc commune); experiment: as above; settings: four weeks; for Total conc, ppm: Cs + Ck + Nc mixed inoculum, NE = no end point at the concentration tested; for % inhibition: Cs + Ck + Nc, at the Total conc
Procedure: as §5
as §2, with “for four” for “for 3”, “at 30 C” for “at 30C”, “for four” for “for three”, “of the” for “of”
as §6

[7] = tested on: Gs + Os (Gloeocapsa sp. + Oscillatoria sp.); experiment: as above; settings: four weeks; for Total conc, ppm: Gs + Os mixed inoculum, NE = no end point at the concentration tested; for % inhibition: Gs + Os, at the Total conc
Procedure: as §5
as §2, with “for four” for “for 3”, “at 30 C” for “at 30C”, “for four” for “for three”, “of the” for “of”
as §6

Row | Compound | % inhibition [1] | Total conc, ppm [1] | % inhibition [2] | Total conc, ppm [2] | % inhibition [3] | Total conc, ppm [3] | Total conc, ppm [4] | % inhibition [4] | Total conc, ppm [5] | % inhibition [5] | Total conc, ppm [6] | % inhibition [6] | Total conc, ppm [7] | % inhibition [7]
1 | CCCCCCCCn1sc(Cl)c(Cl)c1=O [DCOIT, 4,5-dichloro-2-n-octyl-4-isothiazolin-3-one] | 77.5% | 2500 ppm | 67.5% | 5000 ppm | 82.5% | 2500 ppm | 862.5 ppm | 100% | 575 ppm | 100% | 575 ppm | 100% | 287.5 ppm | 100%
2 | Cc1ccc(S(=O)(=O)C(I)I)cc1 [DIMTS, diiodomethyl-p-tolylsulfone] | 77.5% | 2500 ppm | 72.5% | 750 ppm | 82.5% | 1500 ppm | 1250 ppm | 100% | 1875 ppm | 95% | 1250 ppm | 100% | 1875 ppm | 100%
3 | CN(C)C(=O)Nc1cccc(C(F)(F)F)c1 [Fluometuron, 1,1-dimethyl-3-(α,α,α-trifluoro-m-tolyl)urea] |  | 2500 ppm and 5000 ppm |  | 2500 ppm and 5000 ppm |  | 2500 ppm and 5000 ppm | 5000 ppm | 0% | 1250 ppm | 100% | 1250 ppm | 100% | 312.5 ppm | 100%
